Some test systems named below: OVCAR-3 ovarian; OVCAR-5 ovarian; OVCAR-4 ovarian; HOP-62 NSCLC; IGROV1 ovarian; LOX IMVI melanoma; DMS 114 small cell lung; SNB-78 CNS; EKVX NSCLC; SK-OV-3 ovarian.
Experiment in all cases: NCI-60 cell line screen, 48 h

Data on 3 molecules can be found in PubChem BioAssay (NCI).

Values joined by “and” are separate entries in the source; they are usually repeats but may differ in a detail not shown here. Equal values may be shown once.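 Interpolation was linear, between the two tested concentrations surrounding the appropriate level; five concentrations were tested over 48 hours in 96-well plates. Here, GI50 denotes the concentration required for 50% inhibition of growth. TGI is the concentration that stops growth completely.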

As for `NNC(=O)N/N=C1/C(=O)N(c2ccc(Cl)c(Cl)c2)C(=O)C(=O)C1c1nc2ccccc2o1` (centres undefined), the TGI in the test with OVCAR-3 ovarian, with OVCAR-5 ovarian, with OVCAR-4 ovarian, in the test with HOP-62 NSCLC, in the test with IGROV1 ovarian and in the test on LOX IMVI melanoma was greater than 100 µM in each case. For the same molecule, the TGI with DMS 114 small cell lung, in the test with SNB-78 CNS, in the test with EKVX NSCLC and in the test with SK-OV-3 ovarian was greater than 100 µM throughout.
Turning to `CN(C)c1ccc(/C=c2\sc3nnc(Cc4ccccc4)n3c2=O)cc1`, the GI50 is greater than 100 µM with OVCAR-3 ovarian; greater than 100 µM in the test on OVCAR-5 ovarian; greater than 100 µM with OVCAR-4 ovarian; greater than 100 µM in the test on HOP-62 NSCLC; greater than 100 µM in the test with IGROV1 ovarian; greater than 10 µM in the test with DMS 114 small cell lung. Also, the GI50 in the test with SNB-78 CNS, in the test with EKVX NSCLC and with SK-OV-3 ovarian was greater than 100 µM in each case. Also, the TGI in the test with OVCAR-3 ovarian was greater than 100 µM; in the test on OVCAR-5 ovarian it was greater than 100 µM; in the test with OVCAR-4 ovarian, greater than 100 µM; in the test on HOP-62 NSCLC, greater than 100 µM; in the test on IGROV1 ovarian, greater than 100 µM; in the test on LOX IMVI melanoma, greater than 10 µM. Further, the TGI with DMS 114 small cell lung is > 10 µM and 33.8 µM; in the test on SNB-78 CNS it was greater than 100 µM; in the test on EKVX NSCLC it was greater than 100 µM; in the test on SK-OV-3 ovarian it was greater than 100 µM.
As to `COC(=O)C(C(=O)C(=O)Nc1ccc(N)cc1[N+](=O)[O-])c1nc2ccc(Cl)cc2[nH]c1=O` (centres undefined), the TGI in the test on OVCAR-3 ovarian, in the test on OVCAR-5 ovarian, with OVCAR-4 ovarian, in the test with HOP-62 NSCLC, in the test with IGROV1 ovarian and in the test with LOX IMVI melanoma was greater than 100 µM each time. In addition, the TGI in the test on DMS 114 small cell lung, in the test on SNB-78 CNS, with EKVX NSCLC and in the test on SK-OV-3 ovarian was greater than 100 µM each time.
